Calls of active or inactive are those of the source. The rule behind the calls is not given here.

Data set [1] addresses T1, Pendrin (Homo sapiens) (UniProt O43511).
T1 sequence (whole entry): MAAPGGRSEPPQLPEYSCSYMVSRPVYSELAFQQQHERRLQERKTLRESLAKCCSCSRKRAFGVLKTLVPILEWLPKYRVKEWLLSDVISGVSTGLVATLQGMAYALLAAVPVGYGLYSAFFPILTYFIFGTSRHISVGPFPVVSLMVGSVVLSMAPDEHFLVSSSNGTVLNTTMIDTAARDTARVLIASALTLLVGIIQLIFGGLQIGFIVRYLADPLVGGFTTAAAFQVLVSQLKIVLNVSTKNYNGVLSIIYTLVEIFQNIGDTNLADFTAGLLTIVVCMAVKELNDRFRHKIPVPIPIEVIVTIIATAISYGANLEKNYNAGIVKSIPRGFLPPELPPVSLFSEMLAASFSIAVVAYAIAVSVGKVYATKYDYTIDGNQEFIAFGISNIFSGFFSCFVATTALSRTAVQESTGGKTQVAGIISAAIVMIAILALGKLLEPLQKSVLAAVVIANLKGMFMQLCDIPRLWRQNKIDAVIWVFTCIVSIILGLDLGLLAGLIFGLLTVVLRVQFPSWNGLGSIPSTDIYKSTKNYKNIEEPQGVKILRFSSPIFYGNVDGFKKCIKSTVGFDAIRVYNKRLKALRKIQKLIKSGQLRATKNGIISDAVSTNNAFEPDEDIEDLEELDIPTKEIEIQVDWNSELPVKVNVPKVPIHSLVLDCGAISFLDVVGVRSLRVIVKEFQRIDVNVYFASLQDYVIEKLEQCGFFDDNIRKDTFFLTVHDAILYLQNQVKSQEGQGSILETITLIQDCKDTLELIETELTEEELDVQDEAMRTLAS
Nature of the data set: Inhibition of human pendrin expressed in FRT cells co-expressing EYFP-HIF assessed as reduction in pendrin-mediated C17SCN(-) exchange incubated for 10 mins by pH-sensitive fluorescent probe BCECF-AM based fluorescence assay relative to control. In kind it is cell-based.

The target of data set [2] is T1, Pendrin (Homo sapiens). Put plainly: Inhibition of human pendrin expressed in FRT cells co-expressing EYFP-HIF assessed as reduction in pendrin-mediated C17F exchange incubated for 10 mins by pH-sensitive fluorescent probe BCECF-AM based fluorescence assay relative to control. It counts as cell-based.
Data set [3] concerns the target T1, Pendrin (Homo sapiens). Put plainly: Reversible inhibition of human pendrin expressed in FRT cells co-expressing EYFP-HIF assessed as reduction in pendrin-mediated C17SCN(-) exchange incubated for 10 mins measured after wash out by pH-sensitive fluorescent probe BCECF-AM based fluorescence assay relative to control. It counts as cell-based.
Data set [4] has as its target T1, Pendrin (Homo sapiens). Put plainly: Time dependent inhibition of human pendrin expressed in FRT cells co-expressing EYFP-HIF assessed as reduction in pendrin-mediated C17SCN(-) exchange by pH-sensitive fluorescent probe BCECF-AM based fluorescence assay relative to control. In kind it is cell-based. The settings on record: TDE = time-dependent effect.
The target in data set [5] is T1, Pendrin (Homo sapiens). Put plainly: Inhibition of human pendrin expressed in FRT cells co-expressing EYFP-HIF assessed as reduction in pendrin-mediated C17HCO3(-) exchange by measuring reduction in cytoplasmic alkalinization exchange at 25 uM by pH-sensitive fluorescent probe BCECF-AM based fluorescence assay relative to control. It counts as cell-based.
A further data set concerns the target T2, Pendrin (Mus musculus) (UniProt Q9R155).
T2 sequence (whole entry): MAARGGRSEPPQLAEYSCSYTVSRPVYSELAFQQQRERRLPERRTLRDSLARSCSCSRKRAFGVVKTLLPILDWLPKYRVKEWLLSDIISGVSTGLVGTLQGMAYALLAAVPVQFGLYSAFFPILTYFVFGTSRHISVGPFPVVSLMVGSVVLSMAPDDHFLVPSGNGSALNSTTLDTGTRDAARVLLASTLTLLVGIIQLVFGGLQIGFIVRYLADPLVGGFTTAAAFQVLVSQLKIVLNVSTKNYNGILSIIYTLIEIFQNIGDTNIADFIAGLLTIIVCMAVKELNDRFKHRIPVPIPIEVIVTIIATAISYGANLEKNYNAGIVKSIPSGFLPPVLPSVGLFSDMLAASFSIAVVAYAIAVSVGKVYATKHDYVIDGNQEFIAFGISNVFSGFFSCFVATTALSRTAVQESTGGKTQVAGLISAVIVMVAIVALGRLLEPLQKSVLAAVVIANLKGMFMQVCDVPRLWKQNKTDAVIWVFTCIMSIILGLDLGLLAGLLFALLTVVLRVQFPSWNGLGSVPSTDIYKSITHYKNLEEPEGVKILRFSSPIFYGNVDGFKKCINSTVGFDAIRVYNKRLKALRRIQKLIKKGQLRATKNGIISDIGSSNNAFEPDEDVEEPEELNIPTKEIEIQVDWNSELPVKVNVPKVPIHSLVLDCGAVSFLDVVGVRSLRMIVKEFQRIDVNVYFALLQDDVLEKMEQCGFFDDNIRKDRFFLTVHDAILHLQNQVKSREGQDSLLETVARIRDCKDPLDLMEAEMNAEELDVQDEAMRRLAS
Put plainly: Inhibition of mouse pendrin expressed in FRT cells co-expressing YFP-HIF assessed as reduction in pendrin-mediated exchange of Cl(-) with SCN(-) by pH-sensitive fluorescent probe BCECF-AM based fluorescence assay relative to control. In kind it is cell-based.

Data set [6] concerns Mus musculus. Nature of the data set: Effect on renal function in CD1 mouse assessed as effect on urine pH at 50 mg/kg, ip. In kind it is ADME, organism-based. Conditions: in vivo.
Data set [7] relates to Mus musculus. Put plainly: Effect on renal function in CD1 mouse assessed as effect on blood gas values at 50 mg/kg, ip. It counts as ADME, organism-based. The settings on record: in vivo.
For data set [8], the system named is Mus musculus. Nature of the data set: Effect on renal function in CD1 mouse assessed as effect on urinary salt excretion at 50 mg/kg, ip measured at 3 hrs. In kind it is ADME, organism-based. Conditions: in vivo.
In data set [9] the test system is Mus musculus. Put plainly: Effect on renal function in C57B/6 mouse assessed as effect on urine pH at 50 mg/kg, ip. It counts as ADME, organism-based. Conditions: in vivo.
Data set [10] relates to Mus musculus. Nature of the data set: Effect on renal function in C57B/6 mouse assessed as effect on blood gas values at 50 mg/kg, ip. It counts as ADME, organism-based. The settings on record: in vivo.
Data set [11] concerns Mus musculus. Put plainly: Effect on renal function in C57B/6 mouse assessed as effect on urinary salt excretion at 50 mg/kg, ip measured at 3 hrs. In kind it is ADME, organism-based. The settings on record: in vivo.
Data set [12] has as its system Mus musculus. Put plainly: Potentiation of 20 mg/kg, ip bid for 8 days furosemide-induced chronic diuretic action in CD1 mouse assessed as effect on urine osmolarity at 10 mg/kg, ip measured at 3 hrs relative to control. In kind it is functional, organism-based.
Data set [13] concerns Mus musculus. Nature of the data set: Potentiation of 20 mg/kg, ip bid for 8 days furosemide-induced chronic diuretic action in CD1 mouse assessed as increase in urinary Na+ excretion at 10 mg/kg, ip measured at 3 hrs relative to control. In kind it is functional, organism-based.
Data set [14] has as its system Mus musculus. Put plainly: Potentiation of 20 mg/kg, ip bid for 8 days furosemide-induced chronic diuretic action in CD1 mouse assessed as increase in urinary K+ excretion at 10 mg/kg, ip measured at 3 hrs relative to control. In kind it is functional, organism-based.

Consider `Cc1n[nH]c(-c2cc(S(=O)(=O)NC3CCCc4ccccc43)c(C)s2)c1C` (centres undefined), for which the inhibition entry at Pendrin (Homo sapiens) [1] was “Dose-dependent effect”; on Pendrin (Homo sapiens) [2], “Dose-dependent effect”; on Pendrin (Homo sapiens) [4] it was “Tde”; on Pendrin (Mus musculus), “Dose-dependent effect”. In addition, the inhibition result on Pendrin (Homo sapiens) [3] and on Pendrin (Homo sapiens) [5] was “Active” in each case. In addition, the Activity result in the data set on Mus musculus [6], in the data set with Mus musculus [7], with Mus musculus [8], in the data set on Mus musculus [9], with Mus musculus [10] and in the data set with Mus musculus [11] was “Non-Toxic” throughout. Also, in the data set with Mus musculus [12], the outcome was inactive. Also, the result in the data set with Mus musculus [13] and with Mus musculus [14] was Active.
As for `Cn1nc(COc2cccc(F)c2)c2c1CCN(C(=O)Nc1ccc(Cl)cc1)C2`, the inhibition result was “Dose-dependent effect” on Pendrin (Homo sapiens) [1], “Dose-dependent effect” on Pendrin (Homo sapiens) [2] and “Tde” at Pendrin (Homo sapiens) [4]. The inhibition entry on Pendrin (Homo sapiens) [3] and at Pendrin (Homo sapiens) [5] was “Active” in each case. The Activity result with Mus musculus [6], with Mus musculus [7], in the data set on Mus musculus [8], in the data set with Mus musculus [9], in the data set with Mus musculus [10] and with Mus musculus [11] was “Non-Toxic” in each case. Also, the outcome in the data set with Mus musculus [12] was inactive. Also, the result with Mus musculus [13] and in the data set with Mus musculus [14] was Active.

For the origin of these results see ChEMBL document CHEMBL4417636, “Small molecule inhibitors of pendrin ion exchange and pharmaceutical compositions” (2017).
